Among the data in the NIST ThermoML archive (doi:10.1021/je0601255) are viscosity and mass density values, retold here.

The conditions of series [1]: 101 kPa, Liquid; for viscosity: Capillary tube (Ostwald / Ubbelohde) method; for mass density: Pycnometric method.
A short description of series [2]: xn = mol fraction of the nth substance listed. The note with it: 101 kPa, Liquid, x1 = 1; for viscosity: Capillary tube (Ostwald / Ubbelohde) method; for mass density: Pycnometric method.

Each structure is given as a SMILES string. Numbers after ± are expanded uncertainties.

For the molecule `C=C(C)C(=O)OCCO` [2-hydroxyethyl 2-methyl-2-propenoate], the viscosity – broadly, the resistance of a fluid to flow – in series [1] (288.15 K) came to 8.234 ± 0.19 mPa·s; in series [1] (298.15 K), 5.784 ± 0.13 mPa·s; in series [1] (308.15 K) it was 4.194 ± 0.096 mPa·s; in series [1] (318.15 K), 3.181 ± 0.073 mPa·s. The mass density (commonly the mass of a sample divided by its volume) in series [1] (288.15 K) was 1074.7 ± 2.4 kg/m3; in series [1] (298.15 K), 1067.1 ± 2.4 kg/m3; in series [1] (308.15 K), 1057.7 ± 2.4 kg/m3; in series [1] (318.15 K), 1048.6 ± 2.4 kg/m3.

As for `C=C(C)C(=O)O` [2-methyl-2-propenoic acid], the viscosity in series [1] (288.15 K) is 1.447 ± 0.031 mPa·s; in series [1] (298.15 K), 1.267 ± 0.027 mPa·s; in series [1] (308.15 K), 1.078 ± 0.023 mPa·s; in series [1] (318.15 K), 0.945 ± 0.02 mPa·s. Also, the mass density came to 1018.3 ± 2.1 kg/m3 in series [1] (288.15 K), 1009.5 ± 2.1 kg/m3 in series [1] (298.15 K), 999.4 ± 2.1 kg/m3 in series [1] (308.15 K) and 989.2 ± 2.1 kg/m3 in series [1] (318.15 K).

On to `C=C(C)C(=O)OCc1ccccc1` [benzyl methacrylate], for which the viscosity is given as 2.871 ± 0.066 mPa·s in series [1] (288.15 K), 2.302 ± 0.053 mPa·s in series [1] (298.15 K), 1.885 ± 0.043 mPa·s in series [1] (308.15 K) and 1.58 ± 0.036 mPa·s in series [1] (318.15 K). Besides, the mass density in series [1] (288.15 K) is on record as 1041.2 ± 2.4 kg/m3; in series [1] (298.15 K), 1034.7 ± 2.3 kg/m3; in series [1] (308.15 K), 1025.8 ± 2.3 kg/m3; in series [1] (318.15 K), 1017 ± 2.3 kg/m3.

Turning to `CCCCO` [butan-1-ol], the viscosity in series [1] (288.15 K) came out at 3.286 ± 0.07 mPa·s; in series [1] (298.15 K), 2.566 ± 0.055 mPa·s; in series [1] (308.15 K), 1.998 ± 0.043 mPa·s; in series [1] (318.15 K), 1.55 ± 0.033 mPa·s. Moreover, the mass density in series [1] (288.15 K) was 812.3 ± 1.7 kg/m3; in series [1] (298.15 K) it was 805.6 ± 1.7 kg/m3; in series [1] (308.15 K), 798 ± 1.7 kg/m3; in series [1] (318.15 K), 790.5 ± 1.6 kg/m3.

In the case of `CCCCO` [butan-1-ol] + C=C(C)C(=O)O, the viscosity in series [2] (288.15 K) is recorded as 3.286 ± 0.07 mPa·s; in series [2] (298.15 K) it was 2.566 ± 0.055 mPa·s; in series [2] (308.15 K), 1.998 ± 0.043 mPa·s; in series [2] (318.15 K) it was 1.55 ± 0.033 mPa·s. Further, the mass density is reported as 812.3 ± 1.7 kg/m3 in series [2] (288.15 K), 805.6 ± 1.7 kg/m3 in series [2] (298.15 K), 798 ± 1.7 kg/m3 in series [2] (308.15 K) and 790.5 ± 1.6 kg/m3 in series [2] (318.15 K).

Turning to `CCCCO` [butan-1-ol] + C=C(C)C(=O)OCCO, the viscosity amounted to 3.286 ± 0.07 mPa·s in series [2] (288.15 K), 2.566 ± 0.055 mPa·s in series [2] (298.15 K), 1.998 ± 0.043 mPa·s in series [2] (308.15 K) and 1.55 ± 0.033 mPa·s in series [2] (318.15 K). Moreover, the mass density in series [2] (288.15 K) came out at 812.3 ± 1.7 kg/m3; in series [2] (298.15 K), 805.6 ± 1.7 kg/m3; in series [2] (308.15 K), 798 ± 1.7 kg/m3; in series [2] (318.15 K) it was 790.5 ± 1.6 kg/m3.

Consider `CCCCO` [butan-1-ol] + C=C(C)C(=O)OCc1ccccc1, for which the viscosity in series [2] (288.15 K) is recorded as 3.286 ± 0.07 mPa·s; in series [2] (298.15 K) it was 2.566 ± 0.055 mPa·s; in series [2] (308.15 K), 1.998 ± 0.043 mPa·s; in series [2] (318.15 K), 1.55 ± 0.033 mPa·s. Moreover, the mass density in series [2] (288.15 K) was found to be 812.3 ± 1.7 kg/m3; in series [2] (298.15 K) it was 805.6 ± 1.7 kg/m3; in series [2] (308.15 K), 798 ± 1.7 kg/m3; in series [2] (318.15 K), 790.5 ± 1.6 kg/m3.
